Measurements taken from ChEMBL document CHEMBL5113403, “Design, synthesis, and biological evaluation of novel pyrazolo [3,4-d]pyrimidine derivatives as potent PLK4 inhibitors for the treatment of TRIM37-amplified breast cancer” (Eur J Med Chem, 2022).

Assays:
[1] = MRT in Sprague-Dawley rat at 10 mg/kg, po by LC-MS/MS analysis; format: ADME, organism-based; details: in vivo
MCF7 [2] = experiment: Induction of apoptosis in human MCF7 cells assessed as total apoptotic cells at 1 uM incubated for 48 hrs by Annexin-V-FITC/PI staining based flow cytometric analysis relative to control; format: functional
MCF7 [3] = experiment: Induction of apoptosis in human MCF7 cells assessed as late apoptotic cells at 2.5 uM incubated for 48 hrs by Annexin-V-FITC/PI staining based flow cytometric analysis (reference value: 0.019 %); format: functional
[4] = Clearance in Sprague-Dawley rat at 3 mg/kg, iv by LC-MS/MS analysis; format: ADME, organism-based; details: in vivo
MCF7 [5] = experiment: Induction of apoptosis in human MCF7 cells assessed as late apoptotic cells at 1 uM incubated for 48 hrs by Annexin-V-FITC/PI staining based flow cytometric analysis (reference value: 0.019 %); format: functional
MCF7 [6] = experiment: Induction of cell cycle arrest in human MCF7 cells assessed as greater G1 phase cells at 1 uM measured after 48 hrs by flow cytometry analysis (reference value: 0.78 %); format: functional
MCF7 [7] = experiment: Induction of cell cycle arrest in human MCF7 cells assessed as G2 phase cells at 1 uM measured after 48 hrs by flow cytometry analysis (reference value: 31.8 %); format: functional
[8] = AUClast in Sprague-Dawley rat at 10 mg/kg, po by LC-MS/MS analysis; format: ADME, organism-based; set-up: time 0 - last, dose 10 mg/kg, route po; details: in vivo
[9] = Half-life in Sprague-Dawley rat at 10 mg/kg, po by LC-MS/MS analysis; format: ADME, organism-based; details: in vivo
MCF7 [10] = experiment: Induction of cell cycle arrest in human MCF7 cells assessed as S phase cells at 0.25 uM measured after 48 hrs by flow cytometry analysis (reference value: 9.31 %); format: functional
MCF7 [11] = experiment: Induction of cell cycle arrest in human MCF7 cells assessed as decrease in G1 phase cells at 0.50 uM measured after 48 hrs by flow cytometry analysis (reference value: 56.9 %); format: functional; set-up: scale not given: the % may be the effect or the level left; details: dose 0.5 µM
MCF7 [12] = experiment: Induction of apoptosis in human MCF7 cells assessed as viable cells at 0.25 uM incubated for 48 hrs by Annexin-V-FITC/PI staining based flow cytometric analysis (reference value: 97 %); format: functional
[13] = Plasma stability in human assessed as compound remaining at 100 uM measured after 10 mins by LC-MS/MS analysis relative to control; format: ADME, cell-free; details: read-out: Stability
[14] = Plasma stability in human assessed as half-life at 100 uM measured upto 120 mins by LC-MS/MS analysis relative to control; format: ADME, cell-free
[15] = Plasma stability in human assessed as compound remaining at 100 uM measured after 30 mins by LC-MS/MS analysis relative to control; format: ADME, cell-free; details: read-out: Stability
MCF7 [16] = experiment: Induction of apoptosis in human MCF7 cells assessed as viable cells at 1 uM incubated for 48 hrs by Annexin-V-FITC/PI staining based flow cytometric analysis (reference value: 97 %); format: functional
MCF7 [17] = experiment: Induction of cell cycle arrest in human MCF7 cells assessed as greater G1 phase cells at 0.50 uM measured after 48 hrs by flow cytometry analysis (reference value: 0.78 %); format: functional; details: dose 0.5 µM
MCF7 [18] = experiment: Induction of cell cycle arrest in human MCF7 cells assessed as S phase cells at 0.50 uM measured after 48 hrs by flow cytometry analysis (reference value: 9.31 %); format: functional; details: dose 0.5 µM
MDA-MB-231 = experiment: Antiproliferative activity against human MDA-MB-231 cells assessed as cell growth inhibition incubated for 5 days by MTT assay; format: functional, cell-based; details: MDA-MB-231, 120 h
CYP2D6 = CYP2D6 (Homo sapiens, UniProt P10635); experiment: Inhibition of CYP2D6 in human liver microsomes at 10 uM preincubated for 10 mins followed by addition of NADPH-regenerating system and measured after 15 mins by LC-MS/MS analysis relative to control; format: ADME, Microsome; details: time 25 min
[19] = AUClast in Sprague-Dawley rat at 3 mg/kg, iv by LC-MS/MS analysis; format: ADME, organism-based; set-up: time 0 - last, dose 3 mg/kg, route iv; details: in vivo
[20] = AUCinfinity in Sprague-Dawley rat at 3 mg/kg, iv by LC-MS/MS analysis; format: ADME, organism-based; set-up: time infinity, dose 3 mg/kg, route iv; details: in vivo
[21] = Metabolic stability in human liver microsomes assessed as half-life at 100 uM measured upto 60 mins in the presence of NADPH by LC-MS/MS analysis; format: ADME, Microsome
[22] = Volume of distribution at steady state in Sprague-Dawley rat at 3 mg/kg, iv by LC-MS/MS analysis; format: ADME, organism-based; details: in vivo, read-out: Vdss
MCF7 [23] = experiment: Induction of cell cycle arrest in human MCF7 cells assessed as greater G1 phase cells at 0.25 uM measured after 48 hrs by flow cytometry analysis (reference value: 0.78 %); format: functional
[24] = Tmax in Sprague-Dawley rat at 10 mg/kg, po by LC-MS/MS analysis; format: ADME, organism-based; details: in vivo
BT-474 = experiment: Antiproliferative activity against human BT-474 cells assessed as cell growth inhibition incubated for 5 days by MTT assay; format: functional, cell-based; details: BT-474, 120 h
MCF7 [25] = experiment: Induction of apoptosis in human MCF7 cells assessed as necrotic cells at 0.50 uM incubated for 48 hrs by Annexin-V-FITC/PI staining based flow cytometric analysis (reference value: 0.18 %); format: functional; details: dose 0.5 µM
[26] = Plasma stability in human assessed as compound remaining at 100 uM measured after 120 mins by LC-MS/MS analysis relative to control; format: ADME, cell-free; details: read-out: Stability
CYP3A4 = CYP3A4 (Homo sapiens, UniProt P08684); experiment: Inhibition of CYP3A4 in human liver microsomes at 10 uM preincubated for 10 mins followed by addition of NADPH-regenerating system and measured after 15 mins by LC-MS/MS analysis relative to control; format: ADME, Microsome; details: time 25 min
MCF7 [27] = experiment: Induction of apoptosis in human MCF7 cells assessed as total apoptotic cells at 0.25 uM incubated for 48 hrs by Annexin-V-FITC/PI staining based flow cytometric analysis relative to control; format: functional
MCF7 [28] = experiment: Induction of apoptosis in human MCF7 cells assessed as late apoptotic cells at 0.25 uM incubated for 48 hrs by Annexin-V-FITC/PI staining based flow cytometric analysis (reference value: 0.019 %); format: functional
MCF7 [29] = experiment: Induction of cell cycle arrest in human MCF7 cells assessed as S phase cells at 2.5 uM measured after 48 hrs by flow cytometry analysis (reference value: 9.31 %); format: functional
MCF7 [30] = experiment: Induction of cell cycle arrest in human MCF7 cells assessed as S phase cells at 0.10 uM measured after 48 hrs by flow cytometry analysis (reference value: 9.31 %); format: functional; details: dose 0.1 µM
[31] = Plasma stability in human assessed as compound remaining at 100 uM measured after 60 mins by LC-MS/MS analysis relative to control; format: ADME, cell-free; details: read-out: Stability
MCF7 [32] = experiment: Induction of cell cycle arrest in human MCF7 cells assessed as G2 phase cells at 0.10 uM measured after 48 hrs by flow cytometry analysis (reference value: 31.8 %); format: functional; details: dose 0.1 µM
[33] = AUCinfinity in Sprague-Dawley rat at 10 mg/kg, po by LC-MS/MS analysis; format: ADME, organism-based; set-up: time infinity, dose 10 mg/kg, route po; details: in vivo
MCF7 [34] = experiment: Induction of apoptosis in human MCF7 cells assessed as necrotic cells at 1 uM incubated for 48 hrs by Annexin-V-FITC/PI staining based flow cytometric analysis (reference value: 0.18 %); format: functional

Chain of CYP3A4 (P08684 whole entry): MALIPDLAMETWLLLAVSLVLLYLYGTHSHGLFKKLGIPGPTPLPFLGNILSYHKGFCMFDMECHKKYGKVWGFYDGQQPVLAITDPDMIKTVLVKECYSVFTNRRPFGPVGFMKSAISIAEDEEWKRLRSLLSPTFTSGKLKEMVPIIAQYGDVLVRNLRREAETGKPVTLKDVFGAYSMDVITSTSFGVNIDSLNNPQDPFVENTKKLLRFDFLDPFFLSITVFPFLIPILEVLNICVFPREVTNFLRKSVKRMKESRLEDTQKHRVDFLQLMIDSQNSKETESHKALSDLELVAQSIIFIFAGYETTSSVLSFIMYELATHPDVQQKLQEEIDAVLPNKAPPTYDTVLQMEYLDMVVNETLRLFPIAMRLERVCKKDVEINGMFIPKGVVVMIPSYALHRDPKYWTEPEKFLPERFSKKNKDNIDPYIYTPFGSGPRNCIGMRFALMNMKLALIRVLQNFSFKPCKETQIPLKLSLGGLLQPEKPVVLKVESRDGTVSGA
Chain of CYP2D6 (P10635 whole entry): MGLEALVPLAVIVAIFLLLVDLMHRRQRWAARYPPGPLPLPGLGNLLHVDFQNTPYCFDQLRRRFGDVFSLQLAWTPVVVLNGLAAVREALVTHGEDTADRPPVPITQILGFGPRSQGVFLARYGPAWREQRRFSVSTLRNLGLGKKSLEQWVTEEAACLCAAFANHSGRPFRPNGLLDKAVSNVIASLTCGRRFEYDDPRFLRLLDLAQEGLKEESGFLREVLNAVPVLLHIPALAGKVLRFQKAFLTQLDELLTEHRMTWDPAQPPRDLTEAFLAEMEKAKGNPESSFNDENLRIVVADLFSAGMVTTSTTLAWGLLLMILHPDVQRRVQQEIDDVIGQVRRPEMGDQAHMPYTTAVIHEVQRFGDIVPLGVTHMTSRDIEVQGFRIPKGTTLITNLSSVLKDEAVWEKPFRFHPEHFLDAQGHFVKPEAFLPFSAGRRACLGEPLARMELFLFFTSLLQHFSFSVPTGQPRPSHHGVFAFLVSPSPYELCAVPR

## Cc1cc(Nc2nc(NCc3ccc(F)cc3F)nc3c2cnn3C2CCOCC2)n[nH]1
[1]
  MRT: 3.13 h
MCF7 [2]
  Activity: 71.84%
MCF7 [3]
  Activity: 10.8%
[4]
  clearance: 47.2 mL/min/kg
MCF7 [5]
  Activity: 6.84%
MCF7 [6]
  Activity: 0.61%
MCF7 [7]
  Activity: 58.3%
[8]
  AUC(0-t): 286 ng·h/mL
[9]
  half-life: 1.75 h
MCF7 [10]
  Activity: 10.67%
MCF7 [11]
  Activity: 36.2%
MCF7 [12]
  Activity: 67.1%
[13]
  remaining at 10 min, 100 µM: 108%
[14]
  half-life at 100 µM: > 4.82 h
[15]
  remaining at 0.5 h, 100 µM: 96.6%
MCF7 [16]
  Activity: 27.5%
MCF7 [17]
  Activity: 1.34%
MCF7 [18]
  Activity: 16.9%
MDA-MB-231
  IC50: 2.88 µM
CYP2D6
  inhibition at 0.25 h, 10 µM: 13.4%
[19]
  AUC(0-t): 1070 ng·h/mL
[20]
  AUC(0-inf): 1070 ng·h/mL
[21]
  half-life at 100 µM: 0.493 h
[22]
  Vd: 3.02 L/kg
MCF7 [23]
  Activity: 0.68%
[24]
  Tmax: 1.33 h
BT-474
  IC50: 2.35 µM
MCF7 [25]
  Activity: 0.56%
[26]
  remaining at 2 h, 100 µM: 107%
CYP3A4
  inhibition at 0.25 h, 10 µM: 0%
MCF7 [27]
  Activity: 30.98%
MCF7 [28]
  Activity: 6.18%
MCF7 [29]
  Activity: 21.6%
MCF7 [30]
  Activity: 7.46%
[31]
  remaining at 1 h, 100 µM: 99.2%
MCF7 [32]
  Activity: 38%
[33]
  AUC(0-inf): 301 ng·h/mL
MCF7 [34]
  Activity: 0.69%
